Active and inactive are the calls of the source. The rule behind the calls is not given here.
Assays:
RKO [1] = experiment: Induction of apoptosis in human RKO cells assessed as necrotic cells at 3 uM incubated for 24 hr by Annexin-V-FITC/PI staining based flow cytometry (Rvb= 0.30%); type: functional
[2] = target: T1, DNA topoisomerase 1 (Homo sapiens) (UniProt P11387); experiment: Poison activity at topoisomerase 1 (unknown origin) assessed as s increase in nicked DNA formation at 1 mM using supercoiled plasmid DNA as substrate at 200 to 400 uM incubated for 35 mins by agarose gel electrophoresis
T1 sequence (whole entry): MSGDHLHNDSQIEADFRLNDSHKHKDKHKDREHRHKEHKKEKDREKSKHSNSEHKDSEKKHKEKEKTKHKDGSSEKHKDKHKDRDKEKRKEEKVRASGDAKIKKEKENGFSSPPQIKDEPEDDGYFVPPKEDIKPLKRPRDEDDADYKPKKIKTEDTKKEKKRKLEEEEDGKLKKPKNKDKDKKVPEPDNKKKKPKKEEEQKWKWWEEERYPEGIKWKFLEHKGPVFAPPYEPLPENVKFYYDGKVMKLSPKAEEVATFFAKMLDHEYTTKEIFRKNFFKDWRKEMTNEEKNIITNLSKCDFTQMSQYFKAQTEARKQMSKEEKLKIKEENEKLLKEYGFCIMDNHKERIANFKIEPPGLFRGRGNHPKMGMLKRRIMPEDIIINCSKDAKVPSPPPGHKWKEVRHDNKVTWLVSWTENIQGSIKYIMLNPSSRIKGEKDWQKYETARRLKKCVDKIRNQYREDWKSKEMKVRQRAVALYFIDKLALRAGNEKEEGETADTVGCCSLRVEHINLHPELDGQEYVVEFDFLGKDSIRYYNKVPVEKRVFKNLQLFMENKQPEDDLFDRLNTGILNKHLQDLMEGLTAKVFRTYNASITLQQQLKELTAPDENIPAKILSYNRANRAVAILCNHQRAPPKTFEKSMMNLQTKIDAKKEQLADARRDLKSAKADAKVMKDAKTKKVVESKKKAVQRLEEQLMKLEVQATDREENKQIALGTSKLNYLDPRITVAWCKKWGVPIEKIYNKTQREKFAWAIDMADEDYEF

RKO [3] = experiment: Induction of apoptosis in human RKO cells assessed as late apoptotic cells at 6 uM incubated for 24 hr by Annexin-V-FITC/PI staining based flow cytometry (Rvb= 4.49%); type: functional
HT-29 [4] = experiment: Induction of apoptosis in human HT-29 cells assessed as viable cells at 2 uM incubated for 24 hr by Annexin-V-FITC/PI staining based flow cytometry (Rvb= 83.5%); type: functional; conditions: read-out: Activity
[5] = AUC (0-t) in Sprague-Dawley rat at 30 mg/kg, po and measured upto 12 hrs by LC-MS analysis; type: ADME, organism-based; set-up: dose 30 mg/kg, time < 12 hrs, route po; conditions: in vivo
[6] = target: T1, DNA topoisomerase 1 (Homo sapiens); experiment: Inhibition of topoisomerase 1 (unknown origin) assessed as relaxation of supercoiled plasmid pBR322 DNA at 10 uM incubated for 45 mins by ethidium bromide staining based agarose gel electrophoresis
HT-29 [7] = experiment: Induction of apoptosis in human HT-29 cells assessed as increase in cytochrome c protein level at 2 to 8 uM incubated for 24 hrs by western blot analysis; type: functional, cell-based; conditions: dose 2-8 µM
RKO [8] = experiment: Antiproliferative activity against human RKO cells assessed as inhibition of cell colonies at 0.37 to 1.5 uM incubated for 7 days by crystal violet staining based microscopic analysis; type: functional; conditions: dose 0.37-1.5 µM, time 7.0 day
HT-29 [9] = experiment: Antitumor activity against human HT-29 cells xenografted in BALB/c mouse assessed as inhibition of tumor growth at 15 mg/kg, ip bid and measured after 14 days by vernier caliper method; type: functional; conditions: HT-29, 336 h, time 14 day, read-out: TGI
HT-29 [10] = experiment: Induction of apoptosis in human HT-29 cells assessed as late apoptotic cells at 2 uM incubated for 24 hr by Annexin-V-FITC/PI staining based flow cytometry (Rvb=8.60%); type: functional
HT-29 [11] = experiment: Induction of apoptosis in human HT-29 cells assessed as viable cells at 4 uM incubated for 24 hr by Annexin-V-FITC/PI staining based flow cytometry (Rvb= 83.5%); type: functional; conditions: read-out: Activity
HT-29 [12] = experiment: Antitumor activity against human HT-29 cells xenografted in BALB/c mouse assessed as reduction of tumor weight at 15 mg/kg, ip bid and measured after 14 days; type: functional, organism-based; conditions: time 14.0 day
HT-29 [13] = experiment: Antiproliferative activity against human HT-29 cells assessed as inhibition of cell proliferation incubated for 24 to 72 hrs by MTT assay; type: functional, cell-based; conditions: time 24-72 hrs, DDE = dose-dependent effect
HT-29 [14] = experiment: Induction of apoptosis in human HT-29 cells assessed as increase in Bax protein level at 2 to 8 uM incubated for 24 hrs by western blot analysis; type: functional, cell-based; conditions: dose 2-8 µM
RKO [15] = experiment: Induction of apoptosis in human RKO cells assessed as early apoptotic cells at 6 uM incubated for 24 hr by Annexin-V-FITC/PI staining based flow cytometry (Rvb= 7.27%); type: functional
RKO [16] = experiment: Inhibition of NF-kappaB signalling pathway in human RKO cells assessed as decrease in phosphorylated IkappaB level at 3 to 9 uM incubated for 24 hrs by Western blot analysis; type: cell-based; conditions: dose 3-9 µM
[17] = Cmax in Sprague-Dawley rat at 30 mg/kg, po and measured upto 12 hrs by LC-MS analysis; type: ADME, organism-based; set-up: time < 12 hrs, dose 30 mg/kg, route po; conditions: in vivo
HT-29 [18] = experiment: Induction of apoptosis in human HT-29 cells assessed as necrotic cells at 2 uM incubated for 24 hr by Annexin-V-FITC/PI staining based flow cytometry (Rvb=1.67%); type: functional
HT-29 [19] = experiment: Induction of apoptosis in human HT-29 cells assessed as early apoptotic cells at 8 uM incubated for 24 hr by Annexin-V-FITC/PI staining based flow cytometry (Rvb=6.25%); type: functional
RKO [20] = experiment: Induction of apoptosis in human RKO cells assessed as increase in cleaved caspase-3 protein level at 3 to 9 uM incubated for 24 hrs by western blot analysis; type: functional, cell-based; conditions: dose 3-9 µM
HT-29 [21] = experiment: Antitumor activity against human HT-29 cells xenografted in BALB/c mouse assessed as tumor necrosis at 15 to 30 mg/kg, ip bid for 14 days by hematoxylin-eosin staining analysis; type: functional, organism-based; conditions: dose 15-30 mg/kg, time 14.0 day
RKO [22] = experiment: Induction of apoptosis in human RKO cells assessed as late apoptotic cells at 9 uM incubated for 24 hr by Annexin-V-FITC/PI staining based flow cytometry (Rvb= 4.49%); type: functional
HT-29 [23] = experiment: Antitumor activity against human HT-29 cells xenografted in BALB/c mouse assessed as inhibition of tumor microvessel density by measuring CD31-index at 30 mg/kg, ip bid for 14 days by immunohistochemical analysis; type: functional; conditions: time 14 day
HT-29 [24] = experiment: Induction of cell cycle arrest in human HT-29 cells assessed as ratio of G1/G0 phase at 2 to 8 uM incubated for 24 hrs by flow cytometry (Rvb= 55.20%); type: functional; conditions: dose 2-8 µM
[25] = target: Prostaglandin G/H synthase 2 (Homo sapiens) (UniProt P35354); experiment: Inhibition of COX-2 (unknown origin) at 3 uM
HT-29 [26] = experiment: Induction of apoptosis in human HT-29 cells assessed as early apoptotic cells at 4 uM incubated for 24 hr by Annexin-V-FITC/PI staining based flow cytometry (Rvb=6.25%); type: functional

Chain of Prostaglandin G/H synthase 2 (Homo sapiens) (P35354 whole entry, looked up): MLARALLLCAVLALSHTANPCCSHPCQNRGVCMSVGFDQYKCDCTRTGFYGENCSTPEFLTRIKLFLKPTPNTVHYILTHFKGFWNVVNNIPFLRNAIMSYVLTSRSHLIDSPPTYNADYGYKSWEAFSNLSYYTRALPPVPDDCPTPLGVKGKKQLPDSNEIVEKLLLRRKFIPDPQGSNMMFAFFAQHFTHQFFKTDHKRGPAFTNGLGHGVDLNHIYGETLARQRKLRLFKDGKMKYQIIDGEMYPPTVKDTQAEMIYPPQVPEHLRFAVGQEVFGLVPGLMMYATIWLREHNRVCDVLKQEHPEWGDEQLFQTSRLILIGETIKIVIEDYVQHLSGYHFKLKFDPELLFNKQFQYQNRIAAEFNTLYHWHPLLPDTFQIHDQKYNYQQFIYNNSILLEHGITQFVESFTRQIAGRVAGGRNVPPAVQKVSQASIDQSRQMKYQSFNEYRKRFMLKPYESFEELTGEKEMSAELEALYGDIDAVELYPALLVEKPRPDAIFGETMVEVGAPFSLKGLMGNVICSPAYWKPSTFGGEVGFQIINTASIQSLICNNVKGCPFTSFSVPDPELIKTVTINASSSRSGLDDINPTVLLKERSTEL

In the case of Cc1c(Cl)cccc1Nc1ccccc1C(=O)Nc1ccc(N2CCNCC2)cc1, the Activity (RKO [1]) was 0.46%, the Activity [2] was “Active” and the Activity (RKO [3]) was 6.88%. The viability at 2 µM (HT-29 [4]) was 82.6%, the AUC(0-t) at 12 h [5] was 5410 ng·h/mL and the inhibition [6] was 69%. The Activity (HT-29 [7]) was “Active”, the Activity (RKO [8]) was “Active” and the inhibition in vivo at 15 mg/kg (HT-29 [9]) was 40.7%. For the same molecule, the Activity (HT-29 [10]) was 11%, the viability at 4 µM (HT-29 [11]) was 80% and the Activity (HT-29 [12]) was “Active”. For the same molecule, the Activity (HT-29 [13]) was “Dde”, the Activity (HT-29 [14]) was “Active” and the Activity (RKO [15]) was 10.5%. For the same molecule, the inhibition (RKO [16]) was “Active”, the Cmax [17] was 1600 ng/mL and the Activity (HT-29 [18]) was 1.49%. The Activity (HT-29 [19]) was 3.96%, the Activity (RKO [20]) was “Active” and the Activity (HT-29 [21]) was “Active”. It also gave an Activity (RKO [22]) of 11.2%, an Inhibition_index (HT-29 [23]) of 6 and an Activity (HT-29 [24]) of 65.17%. It also gave an inhibition [25] of 74.2% and an Activity (HT-29 [26]) of 4.95%.

Reference: ChEMBL document CHEMBL5113460, “Discovery of dual inhibitors of topoisomerase I and Cyclooxygenase-2 for colon cancer therapy” (Eur J Med Chem, 2022)
